Experimental data taken from patent US20200055808A1, “COMPOSITION FOR USE IN DETECTING AN ALLERGY TO CLAVULANIC ACID” (SERVICIO ANDALUZ DE SALUD, priority 2016, published 2020).

Columns and labels:
basophils = assay: Basophil activation test (BAT) by flow cytometry; assay type: cell-based, human; conditions: for BAT result (stimulation index): 5, 1 and 0.2 mM, 25 patients selective for CLV and 15 tolerant controls, positive at the highest concentration, FIG. 3; for stimulation indices in patients compared to controls: 8, 4, 2, 1 mM, 7 patients positive for Clav 2 vs 6 controls, p=0.003 Clav 2 and p=0.015 Clav 5 at 8 mM, p=0.015 Clav 2 at 4 mM, FIG. 5
Excerpt: The “basophil activation test” or “BAT” is an in vitro functional test which detects the activation of basophils after a stimulus with a specific antigen by detecting the expression of cell surface activation markers, which is usually monitored by flow cytometry using fluorescent monoclonal antibodies. Therefore, this test is used for the in vitro diagnosis of allergies. The technique comprises several steps: drawing blood and preparing the solution or suspension, performing stimulation with allergen(s), performing cellular marking with fluorescent antibodies which discriminate activated basophils, and performing counting in a flow cytometer. The technique can be carried out using as the substrate whole blood or the buffy coat previously isolated from the whole blood sample.
The BAT was performed as described by Torres M J et al. (Torres M J, et al. Clin Exp Allergy 2004; 34:1768-75) with CLV (Sigma Aldrich, Saint Louis, USA). […] The cells were stained with monoclonal antibodies, anti-CD63-FITC, CD203c-PE, CCR3-APC (Caltag Laboratories, Burlingame, Calif.), and measured in a FACSCalibur flow cytometer (Becton-Dickinson Bioscience, San José, Calif.) acquiring at least 500-1000 basophils per sample. The results were analyzed with FlowJo® software (Tree Star, Inc. USA), and the activation was expressed as a stimulation index (SI), calculated as the ratio between the percentage of activated basophils (CD63+ or CD203c+cells) in samples stimulated with different haptenes and non-stimulated sample. To calculate the SI, the percentage of spontaneously activated basophils was required to be equal to or greater than 5%, as described by Sanz M L et al. (Sanz M L, et al. Clin Exp Allergy 2002; 32:277-86).

[1] = system: IgE-mediated basophil activation pathway; assay: BAT with wortmannin (WTM) inhibition of the IgE-mediated basophil activation pathway; assay type: cell-based, human; conditions: WTM 1 μM; 8 mM: p=0.002 Clav2, p=0.001 Clav 5; 4 mM: p=0.001 both; FIG. 7
Description: To confirm that the activation of basophils was mediated by IgE, the inhibitory effect of wortmannin at 1 μM was analyzed. Wortmannin acts as a specific inhibitor of phosphatidylinositol 3-kinase (Pl3-K), which has proven to be one of the most important FceRI receptor-activated kinases involved in human basophil IgE-mediated stimulation. This was used with the positive control (anti-IgE) and the different haptenes and synthesized structures at the same concentrations described above.

[2] = 15 tolerant subjects, cutoff SI CLV >1.5, Clav 2 >3 (ROC curves), FIG. 4
[3] = 25 patients selective for CLV, cutoff SI CLV >1.5, Clav 2 >3 (ROC curves), FIG. 4
[4] = 6 tolerant controls, same cutoff point, FIG. 6
[5] = 7 patients positive for Clav 2 in the preceding test, same cutoff point, FIG. 6

Row | Compound | percentage of positive cases in BAT (basophils; [2]) | percentage of positive cases in BAT (basophils; [3]) | BAT result (stimulation index) (basophils; first phase) | percentage of positive cases in BAT (basophils; [4]) | percentage of positive cases in BAT (basophils; [5]) | stimulation indices in patients compared to controls (basophils) | stimulation index in patients compared to the tolerant controls (basophils; first phase, 25 patients selective for CLV vs 15 tolerant controls, p<0.0001 (Mann-Whitney)) | basophil activation after prior incubation with WTM [1]
1 | O=C(O)[C@H]1/C(=C/CO)O[C@@H]2CC(=O)N21 [CLV, (3R,5R,Z)-2-(2-hydroxyethylidene)-7-oxo-1-oxa-4-aza-bicyclo[3.2.0]heptane-3-carboxylic acid, reference compound] | 13.3% | 24% | – | – | – | – | – | –
2 | CCCCNC(=O)CC(OC)OC [Clav 1, N-butyl-3,3-dimethoxypropanamide] | – | – | only Clav 2 provided positive results | – | – | – | – | –
3 | CC(C)COC(=O)OC(=O)CC(=O)OC(=O)OCC(C)C [Clav 2, bis-((isobutoxycarbonyl)oxy)-1,3-dioxopropanoic anhydride] | 33.3% | 56% | positive results | no positive case | 85.7% | higher stimulation indices | significantly higher | IgE-mediated and specific
4 | CCCCNC(=O)CCN [Clav 3, 3-amino-N-butylpropanamide] | – | – | only Clav 2 provided positive results | – | – | – | – | –
5 | NCCC(=O)O [Clav 4, 3-aminopropanoic acid] | – | – | only Clav 2 provided positive results | – | – | – | – | –
6 | CCOC(CC(=O)OC(=O)CC(OCC)OCC)OCC [Clav 5, 3,3-diethoxypropanoic anhydride] | – | – | – | 28.6% | 71.4% | higher stimulation indices | – | IgE-mediated and specific
